Measured values published in article PMC10910856 (RSC Advances, 2024).

test system: α-glucosidase; test: Alpha-glucosidase inhibitory assay; type: biochemical, Bovine; conditions: ratio of IC50 values

Question: `CC1=NN(c2ccccc2)C(=O)C1=NNc1ccc(S(N)(=O)=O)cc1` [Compound 3a, 4-(2-(3-Methyl-5-oxo-1-phenyl-1,5-dihydro-4H-pyrazol-4-ylidene) hydrazinyl)benzenesulfonamide] was tested. Which “times more active towards α-glucosidase enzyme than α-amylase enzyme” value did it give?
Answer: 21 times

same assay, conditions: read-out: α-Glucosidase IC50 (μM ± SD); mean of three replicates

Question: With `CC1=NN(c2ccccc2)C(=O)C1=NNc1ccc(S(N)(=O)=O)cc1` [Compound 3a, 4-(2-(3-Methyl-5-oxo-1-phenyl-1,5-dihydro-4H-pyrazol-4-ylidene) hydrazinyl)benzenesulfonamide] as the compound, how does the IC50 read?
Answer: 19.4 ± 2.7 µM

Question: Which IC50 does the source give for `CC1=NN(c2ccc(Cl)cc2)C(=O)C1=NNc1ccc(S(N)(=O)=O)cc1` [Compound 3b, 4-(2-(1-(4-Chlorophenyl)-3-methyl-5-oxo-1,5-dihydro-4H-pyrazol-4-ylidene)hydrazinyl)benzenesulfonamide] here?
Answer: 25.1 ± 0.7 µM

Question: Which IC50 does the source give for `CC1=NN(c2ccc(F)cc2)C(=O)C1=NNc1ccc(S(N)(=O)=O)cc1` [Compound 3e, 4-(2-(1-(4-Fluorophenyl)-3-methyl-5-oxo-1,5-dihydro-4H-pyrazol-4-ylidene)hydrazinyl)benzenesulfonamide] here?
Answer: 44.8 ± 3.4 µM

Question: For `CC1=NN(c2cccc(C)c2)C(=O)C1=NNc1ccc(S(N)(=O)=O)cc1` [Compound 3f, 4-(2-(3-Methyl-5-oxo-1-(m-tolyl)-1,5-dihydro-4H-pyrazol-4-ylidene)-hydrazinyl)benzenesulfonamide], which IC50 is on record?
Answer: 55.4 ± 4.8 µM

Question: For `CC1=NN(c2ccc(C)cc2)C(=O)C1=NNc1ccc(S(N)(=O)=O)cc1` [Compound 3g, 4-(2-(3-Methyl-5-oxo-1-(p-tolyl)-1,5-dihydro-4H-pyrazol-4-ylidene)-hydrazinyl)benzenesulfonamide], which IC50 is on record?
Answer: 99.1 ± 6.8 µM

Question: With `CC1=NN(c2cccc([N+](=O)[O-])c2)C(=O)C1=NNc1ccc(S(N)(=O)=O)cc1` [Compound 3h, 4-(2-(3-Methyl-1-(3-nitrophenyl)-5-oxo-1,5-dihydro-4H-pyrazol-4-ylidene)hydrazinyl)benzenesulfonamide] as the compound, how does the IC50 read?
Answer: 25.6 ± 2.1 µM

Question: For `CC1=NN(c2cc(Cl)ccc2Cl)C(=O)C1=NNc1ccc(S(N)(=O)=O)cc1` [Compound 3i, 4-(2-(1-(2,5-Dichlorophenyl)-3-methyl-5-oxo-1,5-dihydro-4H-pyrazol-4-ylidene)hydrazinyl)benzenesulfonamide], which IC50 is on record?
Answer: 50.2 ± 4.8 µM

Question: `CC1=NN(c2ccccn2)C(=O)C1=NNc1ccc(S(N)(=O)=O)cc1` [Compound 3j, 4-(2-(3-Methyl-5-oxo-1-(pyridin-2-yl)-1,5-dihydro-4H-pyrazol-4-ylidene)hydrazinyl)benzenesulfonamide] was tested. Which IC50 did it give?
Answer: 82.7 ± 7.4 µM

Question: For `CC1=NNC(=O)C1=NNc1ccc(S(N)(=O)=O)cc1` [Compound 4, 4-(2-(3-Methyl-5-oxo-1,5-dihydro-4H-pyrazol-4-ylidene)hydrazinyl)-benzenesulfonamide], which IC50 is on record?
Answer: 76 ± 6.1 µM

Question: `CC1=NOC(=O)C1=NNc1ccc(S(N)(=O)=O)cc1` [Compound 5, 4-(2-(3-Methyl-5-oxoisoxazol-4(5H)-ylidene)hydrazinyl)benzene-sulfonamide] was tested. Which IC50 did it give?
Answer: 78.7 ± 5.9 µM

Question: Which IC50 does the source give for `CC1=NNC(=S)NC(=O)C1/N=N/c1ccc(S(N)(=O)=O)cc1` (stereo not shown) [Compound 7, (E)-4-((7-methyl-5-oxo-3-thioxo-3,4,5,6-tetrahydro-2H-1,2,4-triazepin-6-yl)diazenyl)benzenesulfonamide] here?
Answer: 85.4 ± 2.3 µM

Question: With `CC1=NCCNC(=O)C1=NNc1ccc(S(N)(=O)=O)cc1` [Compound 8, 4-(2-(5-Methyl-7-oxo-1,2,3,7-tetrahydro-6H-1,4-diazepin-6-ylidene)hydrazinyl)benzenesulfonamide] as the compound, how does the IC50 read?
Answer: 110 ± 6.7 µM
